Where two headings read alike, the source gives them in different places.
Assay: Pharmacokinetics (PK) in Male Beagle Dogs
Type: in vivo
Details: dog, plasma; for Vd: read-out: Vdss
Experimental: Assay 3. Pharmacokinetics (PK) in Male Beagle Dogs
The pharmacokinetic (PK) profile in plasma of two compounds of the present invention was determined in male beagle dogs following single dose IV (5 mg/kg) and PO (10 mg/kg) administration. This study was performed under non-GLP conditions, and unless otherwise stated, all analytical reagents were standard laboratory reagent grade.
Male beagle dogs were housed individually and maintained in a controlled environment. Pedigree® standard dog chow (Pedigree India Private Ltd, Telangana, India) was provided once daily. Drinking water was available ad libitum. Environmental controls for the animal room were set to maintain a temperature range of 22-25° C., relative humidity range of 40-70%, and a 12-hour light/12-hour dark cycle. Normal healthy animals weighing 10±1 kg, certified by the attending veterinarian, were selected and acclimatized for a minimum of three days prior to initiation of study. Dogs were identified by chip number inserted at the neck region. The study protocol was reviewed and approved by the Institutional Animal Ethics Committee (IAEC).
2-[4-[[4-[1-(2,6-dioxo-3-piperidyl)-3-methyl-2-oxo-benzimidazol-5-yl]-1-piperidyl]methyl]cyclohexyl]-7-isopropoxy-N-pyrazolo[1,5-a]pyrimidin-3-yl-imidazo[1,2-a]pyridine-6-carboxamide, as described in Example 48 (“Compound 48”), and 2-((1R,4S)-4-((4-(1-(2,6-dioxopiperidin-3-yl)-3-methyl-2-oxo-2,3-dihydro-1H-benzo[d]imidazol-5-yl)piperidin-1-yl)methyl)cyclohexyl)-N-(1-((1S,2R)-2-fluorocyclopropyl)-2-oxo-1,2-dihydropyridin-3-yl)-7-isopropoxyimidazo[1,2-a]pyridine-6-carboxamide, as described in Example 169 (“Compound 169”), were each formulated by dissolving the compound in polyethylene glycol (PEG400) (10%) with stirring, followed by the slow addition of 11.11% 2-Hydroxypropyl-beta-cyclodextrin (HPβCD) (90%) in water. Vehicle dose was PEG400 (10%) and 11.11% HP-β-CD (90%) in water. Formulations and vehicle were freshly prepared on the day of dosing and stored at room temperature until used.
All animals were weighed prior to drug administration. The animals were divided into intravenous (IV) group and per os (PO) group for each compound tested, with 3 animals in each group. The vehicle dosing group also included IV and PO groups, making a total of 6 groups of 3 animals each, for 18 animals total. The animals were restrained physically in sternal recumbently, on an examination table. The IV dose was administered by intravenous bolus injection into the cephalic vein and the PO dose was administered via gastric tube. The dosing volume was 1 mL/kg for IV groups and 2 mL/kg for PO groups. The dosing concentration was 5 mg/mL for both IV and PO groups respectively. The animals were fasted overnight and food was provided 4 hours post dose. […] Apart from this, animals were observed twice daily for any clinical signs, if any, and noted accordingly.
From the vehicle treatment group, whole blood was collected for peripheral blood mononuclear cells (PBMC) isolation at Pre-dose, and at 2, 8, 24, 48, 72 and 96 hour timepoints. For both tested compounds IV and PO dosing groups, whole blood was collected for plasma isolation at Pre-dose, and 0.033, 0.083, 0.167, 0.33, 1, 2, 4, 6, 8, 24, 48, 72 and 96 hour timepoints. The anti-coagulant solution used was 6% (v/v) Sodium citrate (200 mM, pH 4.79) (pre-chilled tubes). The whole blood from both IV and PO compound treatment dosing groups collected at Pre-dose, 2, 8, 24, 48, 72 and 96 hours were subjected to PBMC isolation.
For sample preparation, approximately 1-2 mL of whole blood was drawn from the peripheral vein and collected in labeled tubes containing lithium heparin, then stored on ice. The blood samples were centrifuged within 15 minutes to separate plasma at 1540 g at 4° C. for 10 minutes. The plasma was separated and transferred to pre-labeled microcentrifuge tubes and immediately frozen at −80±10° C. until bioanalysis. […]

Structure (SMILES)	AUC(0-t) (5 mg/kg IV, mean)	C0 (5 mg/kg IV, mean)	clearance (5 mg/kg IV, mean)	half-life (5 mg/kg IV, mean)	Vd (5 mg/kg IV, mean)	AUC(0-t) (10 mg/kg PO, mean)	Cmax (10 mg/kg PO, mean)	bioavailability (10 mg/kg PO, mean)	AUC(0-t) (5 mg/kg IV, mean (Table 5))	C0 (5 mg/kg IV, mean (Table 5))	clearance (5 mg/kg IV, mean (Table 5))	half-life (5 mg/kg IV, mean (Table 5))	Vd (5 mg/kg IV, mean (Table 5))	AUC(0-t) (10 mg/kg PO, mean (Table 6))	Cmax (10 mg/kg PO, mean (Table 6))	bioavailability (10 mg/kg PO, mean (Table 6))
CC(C)Oc1cc2nc([C@H]3CC[C@H](CN4CCC(c5ccc6c(c5)n(C)c(=O)n6C5CCC(=O)NC5=O)CC4)CC3)cn2cc1C(=O)Nc1cnn2cccnc12 (stereo partly shown) [Compound 48, 2-[4-[[4-[1-(2,6-dioxo-3-piperidyl)-3-methyl-2-oxo-benzimidazol-5-yl]-1-piperidyl]methyl]cyclohexyl]-7-isopropoxy-N-pyrazolo[1,5-a]pyrimidin-3-yl-imidazo[1,2-a]pyridine-6-carboxamide]	1720 ng·h/mL	4180 ng/mL	46.3 mL/min/kg	34.5 h	58.5 L/kg	242 ng·h/mL	33.9 ng/mL	7.02%	–	–	–	–	–	–	–	–
CC(C)Oc1cc2nc([C@H]3CC[C@H](CN4CCC(c5ccc6c(c5)n(C)c(=O)n6C5CCC(=O)NC5=O)CC4)CC3)cn2cc1C(=O)Nc1cccn([C@H]2C[C@H]2F)c1=O (stereo partly drawn) [Compound 169, 2-((1R,4S)-4-((4-(1-(2,6-dioxopiperidin-3-yl)-3-methyl-2-oxo-2,3-dihydro-1H-benzo[d]imidazol-5-yl)piperidin-1-yl)methyl)cyclohexyl)-N-(1-((1S,2R)-2-fluorocyclopropyl)-2-oxo-1,2-dihydropyridin-3-yl)-7-isopropoxyimidazo[1,2-a]pyridine-6-carboxamide]	–	–	–	–	–	–	–	–	2210 ng·h/mL	3160 ng/mL	35 mL/min/kg	42.5 h	58 L/kg	472 ng·h/mL	32.2 ng/mL	10.7%

From patent US20240343733A1, “COMPOUNDS FOR TARGETING DEGRADATION OF IRAK4 PROTEINS” (BIOGEN MA INC., priority 2021, published 2024)
